{"source": "patent US4876260A", "about": "“Oxathiolanes” (State of Israel, Israel Institute of Biological Research, priority 1988, dated 1989)", "key": {"[1]": {"tested_on": "isolated guinea-pig ileum", "assay": "Contraction of isolated guinea-pig ileum preparation", "conditions": "listed as (+)-AF122B", "excerpt": "From this Table, it appears that compounds (III) were not so effective in contracting the guinea pig ileum preparation."}, "[2]": {"tested_on": "mice", "assay": "Pharmacodynamic profile and general toxicity in mice", "assay_type": "in vivo, CD-1 mice", "protocol": "Male white mice of the CD-1 strain supplied by Charles River Ltd. (U.K.) were used throughout. An acclimatization period of at least three days was allowed between arrival and commencement of a particular experimental series. The animals were fed a complete commercial pelleted rodent diet without restriction during the acclimatization and study periods. Animals had free access to tap water. Body weights during testing were mostly within 20-28 g.\nTest materials were prepared as aqueous solutions in physiological saline (0.9% NaCl), up to a maximum concentration of 10 mg./ml. All materials were freshly prepared on the morning prior to each dosing session. Dosages were expressed gravimetrically (mg./kg.), in terms of the materials as received.\nGroups of mice (mostly n=5) received either i.v. or oral administration of the test materials at various dose levels. Dose volumes appropriate for respective dose levels selected, were determined for each animal according to body weights on the day of dosing. Any behavioral changes occurring during one to two hours after administration, as well as incidence of death up to 24 hours after dosing were recorded."}, "[3]": {"molecular_target": "T1, M1 muscarinic receptors (3H-PZ sites, frontal cortex) (Rattus norvegicus, UniProt P08482)", "T1 sequence (P08482 1-460)": "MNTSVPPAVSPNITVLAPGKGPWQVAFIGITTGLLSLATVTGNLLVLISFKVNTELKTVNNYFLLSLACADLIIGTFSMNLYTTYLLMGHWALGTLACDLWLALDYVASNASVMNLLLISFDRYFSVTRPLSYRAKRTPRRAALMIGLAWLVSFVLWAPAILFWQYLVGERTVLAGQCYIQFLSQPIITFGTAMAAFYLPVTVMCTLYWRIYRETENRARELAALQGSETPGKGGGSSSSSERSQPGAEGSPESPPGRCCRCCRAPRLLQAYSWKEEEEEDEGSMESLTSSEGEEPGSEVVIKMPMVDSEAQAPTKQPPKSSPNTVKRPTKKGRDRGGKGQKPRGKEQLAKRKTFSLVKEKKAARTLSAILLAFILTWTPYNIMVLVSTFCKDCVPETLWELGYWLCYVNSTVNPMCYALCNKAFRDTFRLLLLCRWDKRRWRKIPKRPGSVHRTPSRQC", "assay": "Displacement of 3H-PZ from rat frontal cortex homogenate", "assay_type": "binding", "conditions": "(a') frontal cortex; read-out: Ki(3H-PZ)"}, "[4]": {"tested_on": "AF64A-induced cognitive impairment (passive avoidance)", "assay": "Step-through passive avoidance in AF64A- and saline-injected rats", "assay_type": "in vivo", "conditions": "for Retention Latency: 72 hour retention test", "excerpt": "Development of potential drugs for the treatment of Alzheimer's disease requires their evaluation in appropriate animal models for this disease. […] This hippocampal cholinergic deficiency is accompanied by statistically significant cognitive impairments (inter alia) in step-through passive avoidance (PA). The present PA experiment investigated the possibility of reversing such impairments by administration of (+)-III (AF122B).\n[…] post-operation, the AF64A and saline-injected groups were randomly subdivided into two treatment sub-groups. Sub-group 1 was treated with 1 mg./kg. i.p. (+)-III (AF122B), while sub-group 2 was treated with […]. i.p. saline. The drug or saline were administered immediately after shock."}, "[5]": {"conditions": "10 mg/kg i.v., listed as (+)-III AF122B"}, "[6]": {"conditions": "25 mg/kg i.v., listed as (+)-III AF122B"}, "[7]": {"conditions": "50 mg/kg i.v., listed as (+)-III AF122B"}, "[8]": {"conditions": "200 mg/kg p.o., listed as (+)-III AF122B"}, "[9]": {"conditions": "AF64A-injected rats, 1 mg./kg. i.p."}, "[10]": {"conditions": "saline-injected rats, 1 mg./kg. i.p."}}}
{"smiles": "CC1OCC2(CN3CCC2CC3)S1", "note": "(single isomer, unassigned) [compound 10, 2-methylspiro(1,3-oxathiolan-4,3')quinuclidine]", "values": [{"measurement": "Contraction of guinea pig ileum (in words)", "setting": "[1]", "result": "active enantiomer"}, {"measurement": "Convulsive seizures, No. affected/total treated", "setting": "[2]; 10 mg/kg i.v.", "result": "2/8"}, {"measurement": "Mortality, time after drug administration", "setting": "[2]; 10 mg/kg i.v.", "result": 5, "unit": "s"}, {"measurement": "Respiratory distress, No. affected/total treated", "setting": "[2]; 10 mg/kg i.v.", "result": "1/8"}, {"measurement": "Tremors, No. affected/total treated", "setting": "[2]; 10 mg/kg i.v.", "result": "2/8"}, {"measurement": "Analgesia (nonresponsiveness to tail pinch), No. affected/total treated", "setting": "[2]; [5]", "result": "5/8"}, {"measurement": "Mortality, No. dead/total treated", "setting": "[2]; [5]", "result": "1/8"}, {"measurement": "Convulsive seizures, No. affected/total treated", "setting": "[2]; [6]", "result": "5/5"}, {"measurement": "Mortality, No. dead/total treated", "setting": "[2]; [6]", "result": "4/5"}, {"measurement": "Mortality, time after drug administration", "setting": "[2]; [6]", "result": 30, "unit": "s"}, {"measurement": "Respiratory distress, No. affected/total treated", "setting": "[2]; [6]", "result": "1/5"}, {"measurement": "Tremors, No. affected/total treated", "setting": "[2]; [6]", "result": "4/5"}, {"measurement": "Mortality, No. dead/total treated", "setting": "[2]; [7]", "result": "2/2"}, {"measurement": "Mortality, time after drug administration", "setting": "[2]; [7]", "result": 5, "unit": "s"}, {"measurement": "Mortality, time after drug administration", "setting": "[2]; 100 mg/kg i.v., immed = immediately", "result": "immed"}, {"measurement": "Mortality, No. dead/total treated", "setting": "[2]; 100 mg/kg i.v., listed as (+)-III AF122B", "result": "2/2"}, {"measurement": "Analgesia (nonresponsiveness to tail pinch), No. affected/total treated", "setting": "[2]; 100 mg/kg p.o.", "result": "5/5"}, {"measurement": "Respiratory distress, No. affected/total treated", "setting": "[2]; 100 mg/kg p.o.", "result": "1/5"}, {"measurement": "Vocalization, No. affected/total treated", "setting": "[2]; 100 mg/kg p.o.", "result": "1/4"}, {"measurement": "Mortality, No. dead/total treated", "setting": "[2]; 100 mg/kg p.o., listed as (+)-III AF122B", "result": "0/5"}, {"measurement": "Tremors, No. affected/total treated", "setting": "[2]; 200 mg/kg p.o.", "result": "3/5"}, {"measurement": "Altered motor activity", "setting": "[2]; [8]", "result": "a+h"}, {"measurement": "Analgesia (nonresponsiveness to tail pinch), No. affected/total treated", "setting": "[2]; [8]", "result": "5/5"}, {"measurement": "Convulsive seizures, No. affected/total treated", "setting": "[2]; [8]", "result": "5/5"}, {"measurement": "Mortality, No. dead/total treated", "setting": "[2]; [8]", "result": "0/5"}, {"measurement": "Respiratory distress, No. affected/total treated", "setting": "[2]; [8]", "result": "4/5"}, {"measurement": "Vocalization, No. affected/total treated", "setting": "[2]; [8]", "result": "2/5"}, {"measurement": "Ki", "setting": "[3]", "result": 7.4, "unit": "µM"}, {"measurement": "Passive avoidance retention (in words)", "setting": "[4]; [9]", "result": "improved the passive avoidance retention of AF64A-injected rats"}, {"measurement": "Retention Latency", "setting": "[4]; [9]", "result": "549.5 ± 29.1", "unit": "s"}, {"measurement": "Effect on retention latency (in words)", "setting": "[4]; AF64A-injected rats, 1 mg./kg. i.p., p<0.01", "result": "prolonged the retention latency of AF64A-injected rats"}, {"measurement": "Initial latency (training) (in words)", "setting": "[4]; between any of the groups", "result": "No significant differences were found during training"}, {"measurement": "Effect on retention latency (in words)", "setting": "[4]; [10]", "result": "no significant effect on the retention latency of saline-injected rats"}, {"measurement": "Retention Latency", "setting": "[4]; [10]", "result": "552 ± 33.7", "unit": "s"}]}
